In article PMC8200211, “PTD4 Peptide Increases Neural Viability in an In Vitro Model of Acute Ischemic Stroke” (International Journal of Molecular Sciences, 2021):
Entries after “also recorded” stand apart in the source; their conditions may differ. Read-outs that look alike come from different tables or passages of the source. Where no end group is shown, it is not given here.

How the values were obtained:
[1] = system: pre-insulted rat primary neural culture; assay: Pro-viable effect of peptides in a multifactorial in vitro model of acute ischemic stroke, CellTiter-Blue; type: cell-based, Wistar rat; conditions: 1 h, then 50 µM peptide 20 h; for Neuroprotection against excitotoxicity: 400 µM glutamic acid, 800 µM NMDA or 800 µM kainic acid
Method: All animal experiments were conducted in accord with the permission of the Local Bioethics Committee. Primary cortical neurons were isolated from Wistar rat embryos at embryonic day 18.5 (E18.5). Pregnant females were euthanized in a CO2 chamber, and the embryos were immediately removed in order to microdissect the brains. The cortices were excised, transferred to Hank’s Balanced Salt Solution (HBSS, Gibco, Waltham, MA, USA), supplemented with a 1% penicillin/streptomycin mixture (Gibco, Waltham, MA, USA) and washed. Afterwards, the tissue was trypsinized (2.5% trypsin, Gibco, Waltham, MA, USA) for 10 min at 37 °C, and homogenized gently by re-suspension with a sterile tip of a pipette. The cell suspension was centrifuged in 300 rcf for 4 min and re-suspended in Neurobasal-A medium (Gibco, Waltham, MA, USA) supplemented to final concentration with 1 mM sodium pyruvate, 12.5 mM glucose 2% B27 (Gibco, Waltham, MA, USA), […] L-glutamine, […], a 1% penicillin/streptomycin mixture, and seeded in a 24-well plate poly-D-lysine (PDL)-coated (BioCoat, Corning, Tewksburry, MA, USA) in the number of 200,000 cells per well. The neural cultures were incubated in a CO2 chamber (5%, 95% air balance, 98% humidity, 37 °C) for 14 days and were used on culture day in vitro (DIV) 14–15. […]
Neural viability was assessed in CellTiter-Blue® (CTB) assay (Promega, cat #G8080, Madison, WI, USA) after 20 h long incubation of cells in standard Neurobasal medium after stressful conditions. […] The fluorescence intensity of the CTB reagent was measured spectrofluorimetrically (560ex/590em) and was proportional to the number of viable cells. The results were calculated as a percentage taking the respective control (non-insulted) measurement as 100% viability. […]

cell membrane = conditions: previous reports; cited from earlier work
Description: Comparing the native Tat(49–57)-NH2 and PTD4, the latter appeared as a better-performing neuroprotectant in the AIS model. Mechanistically, this may indicate a possible correlation between neuroprotection and the structural and acid-base peptide properties.

[2] = system: primary neural cortical cultures; assay: Peptide neurotoxicity, CellTiter-Blue viability assay; type: cell-based, Wistar rat; conditions: for Neural viability, relative to non-insulted control: 100 µM; for Concentration at which neurotoxic impact was visible: tested 1, 10, 50, 100, 200 µM
Method: All animal experiments were conducted in accord with the permission of the Local Bioethics Committee. Primary cortical neurons were isolated from Wistar rat embryos at embryonic day 18.5 (E18.5). Pregnant females were euthanized in a CO2 chamber, and the embryos were immediately removed in order to microdissect the brains. The cortices were excised, transferred to Hank’s Balanced Salt Solution (HBSS, Gibco, Waltham, MA, USA), supplemented with a 1% penicillin/streptomycin mixture (Gibco, Waltham, MA, USA) and washed. Afterwards, the tissue was trypsinized (2.5% trypsin, Gibco, Waltham, MA, USA) for 10 min at 37 °C, and homogenized gently by re-suspension with a sterile tip of a pipette. The cell suspension was centrifuged in 300 rcf for 4 min and re-suspended in Neurobasal-A medium (Gibco, Waltham, MA, USA) supplemented to final concentration with 1 mM sodium pyruvate, 12.5 mM glucose 2% B27 (Gibco, Waltham, MA, USA), […] L-glutamine, […], a 1% penicillin/streptomycin mixture, and seeded in a 24-well plate poly-D-lysine (PDL)-coated (BioCoat, Corning, Tewksburry, MA, USA) in the number of 200,000 cells per well. The neural cultures were incubated in a CO2 chamber (5%, 95% air balance, 98% humidity, 37 °C) for 14 days and were used on culture day in vitro (DIV) 14–15.
The influence of all peptides on neural viability was assessed by exposing the cells to different peptide concentrations (1, 10, 50, 100, 200 µM) for 20 h at 37 °C in a 5% CO2 chamber. The assessments were performed in 24-well PDL-coated plates (BioCoat, Corning, Tewksbury, MA, USA) with a working volume of 500 µL/well. The respective peptide solutions were prepared in culture medium so that in all wells only 50 µL of the medium was exchanged, including control (untreated) samples.
Neural viability was assessed in CellTiter-Blue® (CTB) assay (Promega, cat #G8080, Madison, WI, USA) after 20 h long incubation of cells in standard Neurobasal medium after stressful conditions. The test was performed in 24-well PDL-coated plates (BioCoat, Corning, Tewksbury, MA, USA) and according to the manufacturer’s guideline, which included adding the solution to the neural culture well, followed by incubation for 1–4 h at 37 °C (5% CO2). The fluorescence intensity of the CTB reagent was measured spectrofluorimetrically (560ex/590em) and was proportional to the number of viable cells. The results were calculated as a percentage taking the respective control (non-insulted) measurement as 100% viability.
Each cell viability experiment was performed in at least three biologically independent experiments, in each of which neural cultures were obtained from one female rat. Each female originated from different breeding parents. In one experiment, the viability assessments for each condition were conducted in three plates, with three–four replicate wells per plate. For every plate, relative viability for one condition were averaged, and then used to calculate averaged results for all plates in an experiment. The final values were calculated from averaged results of independent experiments and shown as a mean ± standard deviation (SD), n = 3. The data were analyzed by a two-way ANOVA test with p-value < 0.05 values considered statistically significant.

YARAAARQARA-NH2 [PTD4, less basic Ala-substituted analogue of Tat(49–57)-NH2, cell-penetrating peptide]
Neuroprotection against excitotoxicity [1]: significant neuroprotection | Pro-viable activity against acidosis ([1]; acidosis pH 6.35, 200 mM sodium lactate): displayed pro-viable activity | Efficiency of peptide translocation across the cell membrane compared to Tat(49–57)-NH2 (cell membrane): almost thirty times higher | Highest non-toxic concentration [2]: 50 µM | Neurotoxicity at higher concentrations [2]: significantly neurotoxic | Neurotoxicity at low concentrations [2]: negligible | Neurotoxicity ranking among the peptides tested [2]: lowest neurotoxicity

C#CC(=O)N[C@@H](CCCNC(=N)N)C(=O)N[C@@H](CCCCN)C(=O)N[C@@H](CCCCN)C(=O)N[C@@H](CCCNC(=N)N)C(=O)N[C@@H](CCCNC(=N)N)C(=O)N[C@@H](CCC(N)=O)C(=O)N[C@@H](CCCNC(=N)N)C(=O)N[C@@H](CCCNC(=N)N)C(=O)N[C@@H](CCCNC(=N)N)C(N)=O [Prop-Tat]
Neural viability, relative to non-insulted control [2]: < 10% | Concentration at which neurotoxic impact was visible ([2]; 20 h exposure, CTB assay): 1000 nM

CC[C@H](C)[C@H](NC(=O)[C@H](CCCCN)NC(=O)[C@H](CCCCN)NC(=O)[C@H](C)NC(=O)[C@H](CC(C)C)NC(=O)[C@H](C)NC(=O)[C@H](C)NC(=O)[C@H](CC(C)C)NC(=O)[C@H](C)NC(=O)[C@H](CCCCN)NC(=O)[C@H](CC(C)C)NC(=O)[C@H](CC(N)=O)NC(=O)[C@@H](NC(=O)[C@H](CCCCN)NC(=O)CNC(=O)[C@H](CC(C)C)NC(=O)[C@H](CC(C)C)NC(=O)[C@H](Cc1ccc(O)cc1)NC(=O)CNC(=O)[C@H](C)N)[C@@H](C)CC)C(=O)N[C@@H](CC(C)C)C(N)=O [TP10, reference compound]
Neural viability, relative to non-insulted control [2]: < 10% | Neurotoxicity ranking among the peptides tested ([2]; 1-200 µM, 20 h exposure, CTB assay): highest toxicity | Concentration at which neurotoxic impact was visible ([2]; 20 h exposure, CTB assay): 1000 nM

RKKR^52RQRRR^57-amide [Tat(49–57)-NH2, reference compound]
Neuroprotection against excitotoxicity [1]: significant neuroprotection | Neurotoxicity at higher concentrations ([2]; >100 µM, 20 h exposure, CTB assay, n = 3): most toxic impact; also recorded: significantly neurotoxic
